Measurements: PubChem BioAssay (NCI)
Values joined by “and” are separate entries in the source; they are usually repeats but may differ in a detail not shown here. Equal entries are not always repeated.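 The compound was tested at five concentrations on cells cultured in 96-well plates, with a 48-hour exposure period. Here, GI50 denotes the concentration required for 50% inhibition of growth. TGI marks complete inhibition of growth.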

Legend:
Experiment in all cases: inhibition of tumour cell growth, NCI panel, 48 h
LOX IMVI melanoma = test system: LOX IMVI melanoma
COLO 205 colon = test system: COLO 205 colon
UACC-62 melanoma = test system: UACC-62 melanoma
HCT-116 colon = test system: HCT-116 colon
SK-MEL-5 melanoma = test system: SK-MEL-5 melanoma
A498 renal = test system: A498 renal
HT29 colon = test system: HT29 colon
EKVX NSCLC = test system: EKVX NSCLC
OVCAR-5 ovarian = test system: OVCAR-5 ovarian
SK-MEL-28 melanoma = test system: SK-MEL-28 melanoma

SMILES	GI50 (LOX IMVI melanoma) [nM]	TGI (LOX IMVI melanoma)	GI50 (COLO 205 colon) [nM]	TGI (COLO 205 colon) [µM]	GI50 (UACC-62 melanoma) [nM]	TGI (UACC-62 melanoma)	GI50 (HCT-116 colon) [nM]	TGI (HCT-116 colon) [µM]	GI50 (SK-MEL-5 melanoma) [µM]	TGI (SK-MEL-5 melanoma) [µM]	GI50 (A498 renal) [nM]	TGI (A498 renal) [µM]	GI50 (HT29 colon) [nM]	TGI (HT29 colon) [µM]	GI50 (EKVX NSCLC) [µM]	TGI (EKVX NSCLC) [µM]	GI50 (OVCAR-5 ovarian) [µM]	TGI (OVCAR-5 ovarian)	GI50 (SK-MEL-28 melanoma)	TGI (SK-MEL-28 melanoma) [µM]
Cc1csc(Nc2nc(-c3cccc(Br)c3)nc(C(Cl)(Cl)Cl)n2)n1	> 100000	> 100 µM	855	> 23.3	3350	> 100 µM	3050	> 100	> 100	> 100	1060	2.47	560	> 100	1.61	5.35	5.2	> 100 µM	3.48 µM	> 100
COc1ccc(-c2oc(=O)ccc2-c2cc(OC)c(OC)c(OC)c2)cc1F	10900	> 100 µM	18000	> 100	10200	> 100 µM	10900	> 100	7.46	58.7	25100	92.9	4930	> 100	46.4	> 100	35.6	> 100 µM	24.7 µM	> 100
N=c1ccn2c(n1)OC1C(O)C(CO)OC12 (centres undefined)	497	98.9 µM and > 100 µM	2280	> 1000	1550	212 µM and > 100 µM	164	> 1000	10.4	> 1000	66300	> 1000	6230	> 1000	> 100	> 1000	–	380 µM and > 100 µM	6.3 µM and > 36.5 µM	> 607
Oc1cc(O)c2c(c1)OC(c1ccc(O)c(O)c1)C(OC1(c3cc(O)c(O)c(O)c3)Oc3cc(O)cc(O)c3C(O)C1O)C2 (centres undefined)	–	38.4 µM	–	> 85.9	–	> 100 µM	–	62	–	34	–	> 49.9	–	41	–	41.6	–	59.3 µM	–	> 68.5
O=C1c2ccccc2C2(O)c3cc4ccccc4cc3OC12O (centres undefined)	–	> 100 µM	–	> 100	–	> 100 µM	–	> 100	–	86.9	–	> 100	–	> 100	–	> 100	–	> 100 µM	–	> 100
CCOC(=O)C(=Cc1cccc(Cl)c1)C(=O)OCC	1650	3.12 µM	2210	4.42	1650	3.58 µM	1820	3.83	1.83	3.35	11900	24.2	2390	5.57	3.75	14.3	1.8	3.54 µM	1.62 µM	3.26
CC(=O)n1c2c(c(=O)n1-c1ccccc1)S(=O)CCC2 (centres undefined)	–	> 100 µM	–	> 100	–	> 100 µM	–	> 100	–	> 100	–	> 100	–	> 100	–	> 100	–	> 100 µM	–	> 100
N#C/C=C(\c1ccc([N+](=O)[O-])cc1)n1nnc2cc(Cl)c(Cl)cc21	1670	3.19 µM	1910	3.91	1770	3.95 µM	1340	2.7	1.83	3.6	1740	3.43	2050	4.23	1.91	4.67	1.95	3.99 µM	2.08 µM	4.23
C[C@H]1Oc2cc(cnc2N)-c2c(nn(C)c2C#N)CN(C)C(=O)c2ccc(F)cc21	40500	> 100 µM	5240	51.4	22400	> 100 µM	22900	> 100	> 74.8	> 100	452	> 30.6	5760	> 100	16	> 100	5.24	> 100 µM	50.3 µM	> 100
COc1ccc(-c2cc(-c3ccccc3)c(C#N)c(=O)n2C2OC(CO)C(O)C(O)C2O)cc1 (centres undefined)	–	> 100 µM	–	> 100	–	> 100 µM	–	> 100	–	> 100	–	> 100	–	> 100	–	> 100	–	> 100 µM	–	> 100
CCOC(=O)C1(c2ccccc2)CCC(=O)CC1	–	> 100 µM	–	> 100	–	> 100 µM	–	> 100	–	> 100	–	> 100	–	> 100	–	> 100	–	> 100 µM	–	> 100
CC(=O)O[C@H]1CCC2[C@@H]3CCC4=C(O)c5nocc5C[C@]4(C)C3CC[C@@]21C (some centres undefined)	–	> 100 µM	–	> 100	–	> 100 µM	–	> 100	–	> 100	–	> 100	–	> 100	–	> 100	–	> 100 µM	–	> 100
CC(C)=CCc1cc(O)cc2c1OC(C=C(C)C)C1=C2C(=O)C2=C(NCCS2(=O)=O)C1=O (centres undefined)	2040	5 µM	2670	5.57	875	3.5 µM	611	2.45	0.751	2.88	2940	5.47	1950	7.24	2.73	9.57	3.72	7.01 µM	2.39 µM	5.13
COc1ccccc1N1CCN(CCCn2c(=O)c3c(OC)nc(C)cc3c(=O)n2-c2ccccc2)CC1	> 100000	> 100 µM	> 100000	> 100	> 100000	> 100 µM	> 100000	> 100	> 100	> 100	> 100000	> 100	> 100000	> 100	> 100	> 100	> 100	> 100 µM	> 100 µM	> 100
